From patent publication US11236044B2, “Selective inhibitors of 12(S)-lipoxygenase (12-LOX) and methods for use of the same” (THE REGENTS OF THE UNIVERSITY OF MICHIGAN, priority 2018, dated 2022)
Read-outs that look alike come from different tables or passages of the source.

Test: Pharmacokinetic study of the inhibitors in mice blood plasma (PO and IV)
Format: in vivo
Conditions: for concentration at 2 h / concentration at 4 h / concentration at 7 h: mouse, plasma, 30 mg/kg
Experimental: Pharmacokinetic Study of the Inhibitors in Mice Blood Plasma
The blood plasma concentration of compounds A1, A2, and A4 in mice was determined following per os, oral compound administration (“PO”) and intravenous (“IV”) administration
Calibration curve. The concentration range was evaluated from 2.5-5000 ng/ml for compound A2, 1-5000 ng/ml for compound A4, and 5-5000 ng/ml for compound A1. The curve was built with linear regression with weighing (1/X2). The linear regression analysis was performed by plotting the peak area ratio (y) against the concentration (x) in ng/mL.
Instrument Conditions. The LC-MS and mass spectrometry conditions for the compounds tested are shown below.
Results. The individual and average compound A1, A2, and A4 concentration-time data for IV and PO dosed groups are listed in Table 1, and graphically presented in FIG. 1.

[1] = iv, IV 30 mg/kg, 2 h, n=3 (outliers excluded), read-out: Concentration in Plasma, Mean
[2] = iv, IV 30 mg/kg, 2 h, read-out: Concentration in Plasma, Mouse 1
[3] = iv, IV 30 mg/kg, 2 h, read-out: Concentration in Plasma, Mouse 2
[4] = iv, IV 30 mg/kg, 2 h, read-out: Concentration in Plasma, Mouse 3
[5] = iv, IV 30 mg/kg, 4 h, read-out: Concentration in Plasma, Mouse 1
[6] = iv, IV 30 mg/kg, 4 h, read-out: Concentration in Plasma, Mouse 3
[7] = iv, IV 30 mg/kg, 7 h, n=3 (outliers excluded), read-out: Concentration in Plasma, Mean
[8] = iv, IV 30 mg/kg, 7 h, read-out: Concentration in Plasma, Mouse 1
[9] = iv, IV 30 mg/kg, 7 h, read-out: Concentration in Plasma, Mouse 2
[10] = iv, IV 30 mg/kg, 7 h, read-out: Concentration in Plasma, Mouse 3
[11] = po, PO 30 mg/kg, 2 h, n=3 (outliers excluded), read-out: Concentration in Plasma, Mean
[12] = po, PO 30 mg/kg, 2 h, read-out: Concentration in Plasma, Mouse 3
[13] = po, PO 30 mg/kg, 4 h, n=3 (outliers excluded), read-out: Concentration in Plasma, Mean
[14] = po, PO 30 mg/kg, 4 h, read-out: Concentration in Plasma, Mouse 1
[15] = po, PO 30 mg/kg, 4 h, read-out: Concentration in Plasma, Mouse 3
[16] = po, PO 30 mg/kg, 7 h, n=3 (outliers excluded), read-out: Concentration in Plasma, Mean
[17] = po, PO 30 mg/kg, 7 h, read-out: Concentration in Plasma, Mouse 1
[18] = po, PO 30 mg/kg, 7 h, read-out: Concentration in Plasma, Mouse 2

concentration at 2 h [1]	concentration at 2 h [2]	concentration at 2 h [3]	concentration at 2 h [4]	concentration at 4 h [5]	concentration at 4 h [6]	concentration at 7 h [7]	concentration at 7 h [8]	concentration at 7 h [9]	concentration at 7 h [10]	concentration at 2 h [11]	concentration at 2 h [12]	concentration at 4 h [13]	concentration at 4 h [14]	concentration at 4 h [15]	concentration at 7 h [16]	concentration at 7 h [17]	concentration at 7 h [18]	SMILES	other results
199 ng/mL	144 ng/mL	333 ng/mL	118 ng/mL	127 ng/mL	96 ng/mL	31 ng/mL	49.3 ng/mL	16.4 ng/mL	27.4 ng/mL	145 ng/mL	230 ng/mL	74.3 ng/mL	38.9 ng/mL	81.2 ng/mL	91.3 ng/mL	106 ng/mL	76.8 ng/mL	COc1cccc(CNc2ccc(S(=O)(=O)Nc3cccc(C(F)(F)F)c3)cc2)c1O [Compound A2]	Concentration in Plasma, Mouse 2 (IV 30 mg/kg, 4 h): *1369.6 ng/ml; Concentration in Plasma, Mouse 2 (PO 30 mg/kg, 2 h): *6042.8 ng/ml; Concentration in Plasma, Mouse 3 (PO 30 mg/kg, 7 h): *301.8 ng/ml; concentration at 4 h (iv, IV 30 mg/kg, 4 h, n=3 (outliers excluded), read-out: Concentration in Plasma, Mean): 112 ng/mL; concentration at 2 h (po, PO 30 mg/kg, 2 h, read-out: Concentration in Plasma, Mouse 1): 59 ng/mL; concentration at 4 h (po, PO 30 mg/kg, 4 h, read-out: Concentration in Plasma, Mouse 2): 103 ng/mL
112 ng/mL	94.2 ng/mL	172 ng/mL	71 ng/mL	20.8 ng/mL	20.6 ng/mL	10.2 ng/mL	24.1 ng/mL	5.6 ng/mL	0.8 ng/mL	5260 ng/mL	410 ng/mL	33.6 ng/mL	33.4 ng/mL	33.8 ng/mL	29 ng/mL	33.2 ng/mL	22.9 ng/mL	COc1cccc(CNc2ccc(S(=O)(=O)Nc3cccc(C4(C(F)(F)F)CC4)c3)cc2)c1O [Compound A4, 4-((2-hydroxy-3-methoxybenzyl)amino)-N-(3-(1-(trifluoromethyl)cyclopropyl)phenyl)benzenesulfonamide]	Concentration in Plasma, Mouse 1 (PO 30 mg/kg, 2 h): *20.2 ng/ml; Concentration in Plasma, Mouse 2 (PO 30 mg/kg, 4 h): *127.5 ng/ml; concentration at 4 h (iv, IV 30 mg/kg, 4 h, read-out: Concentration in Plasma, Mouse 2): 28.8 ng/mL; concentration at 2 h (po, PO 30 mg/kg, 2 h, read-out: Concentration in Plasma, Mouse 2): 642 ng/mL; concentration at 7 h (po, PO 30 mg/kg, 7 h, read-out: Concentration in Plasma, Mouse 3): 30.9 ng/mL
